Source: ChEMBL document CHEMBL5108051, “Improving the Antimicrobial Performance of Amphiphilic Cationic Antimicrobial Peptides Using Glutamic Acid Full-Scan and Positive Charge Compensation Strategies” (J Med Chem, 2022)
Values after ≈ are worked out from the molar mass of the structure shown. Square brackets hold non-standard residues; d marks the D form. Peptide text beside a SMILES is read from it. ξ: configuration not given here. Ile(3ξ) = CCC(C)[C@H](N)C(=O)O; ξK = NCCCCC(N)C(=O)O

Key:
Klebsiella pneumoniae = test: Antibacterial activity against Klebsiella pneumoniae ATCC 700603 assessed as growth inhibition measured after 18 to 24 hrs by CLSI based broth microdilution method; assay type: functional; conditions: time 18-24 hrs
Pseudomonas aeruginosa = test: Antibacterial activity against Pseudomonas aeruginosa ATCC 27853 assessed as growth inhibition measured after 18 to 24 hrs by CLSI based broth microdilution method; assay type: functional; conditions: time 18-24 hrs
Staphylococcus aureus = test: Antibacterial activity against Staphylococcus aureus ATCC 25923 assessed as growth inhibition measured after 18 to 24 hrs by CLSI based broth microdilution method; assay type: functional; conditions: time 18-24 hrs
Erythrocyte = test: Hemolytic activity against mouse RBC measured after 1 hrs; assay type: toxicity, cell-based
Escherichia coli = test: Antibacterial activity against Escherichia coli ATCC 25922 assessed as growth inhibition measured after 18 to 24 hrs by CLSI based broth microdilution method; assay type: functional; conditions: time 18-24 hrs
Bacillus subtilis = test: Antibacterial activity against Bacillus subtilis ATCC 23857 assessed as growth inhibition measured after 18 to 24 hrs by CLSI based broth microdilution method; assay type: functional; conditions: time 18-24 hrs

Structure (SMILES)	MIC (Klebsiella pneumoniae) [µM]	MIC (Pseudomonas aeruginosa) [µM]	MIC (Staphylococcus aureus) [µM]	MHC10 (Erythrocyte) [µM]	MIC (Escherichia coli) [µM]	MIC (Bacillus subtilis) [µM]
CC[C@H](C)[C@H](NC(=O)[C@@H]1CCCN1C(=O)[C@H](CC(C)C)NC(=O)[C@@H](N)CCC(=O)O)C(=O)N[C@H](C(=O)N[C@@H](C)C(=O)N[C@@H](CCCCN)C(=O)N[C@@H](CC(C)C)C(=O)N[C@@H](CC(C)C)C(=O)N[C@@H](CO)C(=O)NCC(=O)N[C@@H](CC(C)C)C(=O)N[C@@H](CC(C)C)C(N)=O)C(C)C (H-ELPIVAKLLSGLL-NH2)	> 128	> 128	> 128	> 256	> 128	> 128
CC[C@H](C)[C@H](NC(=O)[C@@H]1CCCN1C(=O)[C@H](CC(C)C)NC(=O)[C@@H](N)Cc1ccccc1)C(=O)N[C@H](C(=O)N[C@@H](C)C(=O)N[C@@H](CCC(=O)O)C(=O)N[C@@H](CC(C)C)C(=O)N[C@@H](CC(C)C)C(=O)N[C@@H](CO)C(=O)NCC(=O)N[C@@H](CC(C)C)C(=O)N[C@@H](CC(C)C)C(N)=O)C(C)C (H-FLPIVAELLSGLL-NH2)	> 128	> 128	> 128	> 256	> 128	> 128
CC[C@H](C)[C@H](NC(=O)[C@@H]1CCCN1C(=O)[C@H](CC(C)C)NC(=O)[C@@H](N)Cc1ccccc1)C(=O)N[C@@H](CCC(=O)O)C(=O)N[C@@H](C)C(=O)N[C@@H](CCCCN)C(=O)N[C@@H](CC(C)C)C(=O)N[C@@H](CC(C)C)C(=O)N[C@@H](CO)C(=O)NCC(=O)N[C@@H](CC(C)C)C(=O)N[C@@H](CC(C)C)C(N)=O (H-FLPIEAKLLSGLL-NH2)	> 128	> 128	> 128	> 256	> 128	> 128
CCC(C)[C@H](NC(=O)[C@@H]1CCCN1C(=O)[C@H](CC(C)C)NC(=O)[C@@H](N)Cc1ccccc1)C(=O)N[C@H](C(=O)N[C@@H](CCCCN)C(=O)N[C@@H](CCCCN)C(=O)N[C@@H](CC(C)C)C(=O)N[C@@H](CC(C)C)C(=O)N[C@@H](CCCCN)C(=O)N[C@@H](CCC(=O)O)C(=O)N[C@@H](CC(C)C)C(=O)N[C@@H](CC(C)C)C(N)=O)C(C)C (stereo not given in full) (H-FLP[Ile(3ξ)]VKKLLKELL-NH2)	16 (≈ 24.8 µg/mL)	8 (≈ 12.4 µg/mL)	4 (≈ 6.21 µg/mL)	53.73	8 (≈ 12.4 µg/mL)	4 (≈ 6.21 µg/mL)
CC(C)C[C@H](NC(=O)[C@H](CC(C)C)NC(=O)[C@H](CCC(=O)O)NC(=O)[C@H](CCCCN)NC(=O)[C@H](CC(C)C)NC(=O)[C@H](CC(C)C)NC(=O)[C@H](CCCCN)NC(=O)[C@H](CCCCN)NC(=O)[C@@H](NC(=O)[C@H](CCCCN)NC(=O)[C@@H]1CCCN1C(=O)[C@H](CC(C)C)NC(=O)[C@@H](N)Cc1ccccc1)C(C)C)C(N)=O (H-FLPKVKKLLKELL-NH2)	16 (≈ 25.1 µg/mL)	16 (≈ 25.1 µg/mL)	32 (≈ 50.2 µg/mL)	> 256	16 (≈ 25.1 µg/mL)	8 (≈ 12.5 µg/mL)
CC[C@H](C)[C@H](NC(=O)[C@@H]1CCCN1C(=O)[C@H](CC(C)C)NC(=O)[C@@H](N)Cc1ccccc1)C(=O)N[C@H](C(=O)N[C@@H](C)C(=O)N[C@@H](CCCCN)C(=O)N[C@@H](CC(C)C)C(=O)N[C@@H](CC(C)C)C(=O)N[C@@H](CO)C(=O)N[C@@H](CCC(=O)O)C(=O)N[C@@H](CC(C)C)C(=O)N[C@@H](CC(C)C)C(N)=O)C(C)C (H-FLPIVAKLLSELL-NH2)	> 128	> 128	16 (≈ 23.3 µg/mL)	73.97	> 128	8 (≈ 11.6 µg/mL)
CC(C)C[C@H](NC(=O)[C@H](CC(C)C)NC(=O)[C@H](CCC(=O)O)NC(=O)[C@H](CO)NC(=O)[C@H](CC(C)C)NC(=O)[C@H](CC(C)C)NC(=O)[C@H](CCCCN)NC(=O)[C@H](CCCCN)NC(=O)[C@@H](NC(=O)[C@H](CCCCN)NC(=O)[C@@H]1CCCN1C(=O)[C@H](CC(C)C)NC(=O)[C@@H](N)Cc1ccccc1)C(C)C)C(N)=O (H-FLPKVKKLLSELL-NH2)	64 (≈ 97.7 µg/mL)	32 (≈ 48.9 µg/mL)	64 (≈ 97.7 µg/mL)	> 256	32 (≈ 48.9 µg/mL)	16 (≈ 24.4 µg/mL)
CC[C@H](C)[C@H](NC(=O)[C@@H]1CCCN1C(=O)[C@H](CC(C)C)NC(=O)[C@@H](N)Cc1ccccc1)C(=O)N[C@H](C(=O)N[C@@H](C)C(=O)N[C@@H](CCCCN)C(=O)N[C@@H](CC(C)C)C(=O)N[C@@H](CCC(=O)O)C(=O)N[C@@H](CO)C(=O)NCC(=O)N[C@@H](CC(C)C)C(=O)N[C@@H](CC(C)C)C(N)=O)C(C)C (H-FLPIVAKLESGLL-NH2)	> 128	> 128	> 128	> 256	> 128	> 128
CC[C@H](C)[C@H](NC(=O)[C@@H]1CCCN1C(=O)[C@H](CC(C)C)NC(=O)[C@@H](N)Cc1ccccc1)C(=O)N[C@H](C(=O)N[C@@H](C)C(=O)N[C@@H](CCCCN)C(=O)N[C@@H](CCC(=O)O)C(=O)N[C@@H](CC(C)C)C(=O)N[C@@H](CO)C(=O)NCC(=O)N[C@@H](CC(C)C)C(=O)N[C@@H](CC(C)C)C(N)=O)C(C)C (H-FLPIVAKELSGLL-NH2)	> 128	> 128	> 128	> 256	> 128	> 128
CC(C)C[C@H](NC(=O)[C@H](CC(C)C)NC(=O)CNC(=O)[C@H](CCC(=O)O)NC(=O)[C@H](CC(C)C)NC(=O)[C@H](CC(C)C)NC(=O)[C@H](CCCCN)NC(=O)[C@H](CCCCN)NC(=O)[C@@H](NC(=O)[C@H](CCCCN)NC(=O)[C@@H]1CCCN1C(=O)[C@H](CC(C)C)NC(=O)[C@@H](N)Cc1ccccc1)C(C)C)C(N)=O (H-FLPKVKKLLEGLL-NH2)	64 (≈ 95.8 µg/mL)	32 (≈ 47.9 µg/mL)	128 (≈ 192 µg/mL)	> 256	16 (≈ 24 µg/mL)	128 (≈ 192 µg/mL)
CC(C)C[C@H](NC(=O)[C@H](CC(C)C)NC(=O)C(CCCCN)NC(=O)[C@H](CCC(=O)O)NC(=O)[C@H](CC(C)C)NC(=O)[C@H](CC(C)C)NC(=O)[C@H](CCCCN)NC(=O)[C@H](CCCCN)NC(=O)[C@@H](NC(=O)[C@H](CCCCN)NC(=O)[C@@H]1CCCN1C(=O)[C@H](CC(C)C)NC(=O)[C@@H](N)Cc1ccccc1)C(C)C)C(N)=O (stereo not given in full) (H-FLPKVKKLLE[ξK]LL-NH2)	16 (≈ 25.1 µg/mL)	16 (≈ 25.1 µg/mL)	32 (≈ 50.2 µg/mL)	> 256	8 (≈ 12.5 µg/mL)	32 (≈ 50.2 µg/mL)
CCC(C)[C@H](NC(=O)[C@@H]1CCCN1C(=O)[C@H](CC(C)C)NC(=O)[C@@H](N)Cc1ccccc1)C(=O)N[C@H](C(=O)N[C@@H](CCCCN)C(=O)N[C@@H](CCCCN)C(=O)N[C@@H](CC(C)C)C(=O)N[C@@H](CC(C)C)C(=O)N[C@@H](CCC(=O)O)C(=O)N[C@@H](CCCCN)C(=O)N[C@@H](CC(C)C)C(=O)N[C@@H](CC(C)C)C(N)=O)C(C)C (stereo not given in full) (H-FLP[Ile(3ξ)]VKKLLEKLL-NH2)	16 (≈ 24.8 µg/mL)	8 (≈ 12.4 µg/mL)	4 (≈ 6.21 µg/mL)	42.55	8 (≈ 12.4 µg/mL)	4 (≈ 6.21 µg/mL)
CCC(C)[C@H](NC(=O)[C@@H]1CCCN1C(=O)[C@H](CC(C)C)NC(=O)[C@@H](N)Cc1ccccc1)C(=O)N[C@H](C(=O)N[C@@H](C)C(=O)N[C@@H](CCCCN)C(=O)N[C@@H](CC(C)C)C(=O)N[C@@H](CC(C)C)C(=O)N[C@@H](CO)C(=O)N[C@@H](CCCCN)C(=O)N[C@@H](CC(C)C)C(=O)N[C@@H](CC(C)C)C(N)=O)C(C)C (stereo not given in full) (H-FLP[Ile(3ξ)]VAKLLSKLL-NH2)	> 128	> 128	8 (≈ 11.6 µg/mL)	17.97	> 128	4 (≈ 5.82 µg/mL)
CC[C@H](C)[C@H](NC(=O)[C@@H]1CCCN1C(=O)[C@H](CC(C)C)NC(=O)[C@@H](N)Cc1ccccc1)C(=O)N[C@H](C(=O)N[C@@H](C)C(=O)N[C@@H](CCCCN)C(=O)N[C@@H](CC(C)C)C(=O)N[C@@H](CC(C)C)C(=O)N[C@@H](CCC(=O)O)C(=O)NCC(=O)N[C@@H](CC(C)C)C(=O)N[C@@H](CC(C)C)C(N)=O)C(C)C (H-FLPIVAKLLEGLL-NH2)	> 128	> 128	16 (≈ 22.8 µg/mL)	69.93	> 128	16 (≈ 22.8 µg/mL)
CC(C)C[C@H](NC(=O)[C@H](CC(C)C)NC(=O)CNC(=O)[C@H](CO)NC(=O)[C@H](CC(C)C)NC(=O)[C@H](CC(C)C)NC(=O)[C@H](CCCCN)NC(=O)[C@H](C)NC(=O)[C@@H](NC(=O)[C@H](CCC(=O)O)NC(=O)[C@@H]1CCCN1C(=O)[C@H](CC(C)C)NC(=O)[C@@H](N)Cc1ccccc1)C(C)C)C(N)=O (H-FLPEVAKLLSGLL-NH2)	> 128	> 128	> 128	> 256	64 (≈ 89.5 µg/mL)	> 128
